Test results taken from US20180289655A1, “Methods and Compositions for the Intravenous Administration of Fumarates for the Treatment of Neurological Diseases” (Biogen MA Inc., priority 2015, published 2018).
Structures can show the parent of a compound that is named as a salt.

Legend:
SOD1-G93A mice = experiment: SOD1-G93A mouse model of ALS, oral DMF; format: in vivo; conditions: DMF p.o. 100 mg/kg daily
Experimental: Motor performance was assessed by rotarod at day 85, 100, and 115. Health was monitored by clinical observation and body weight. […] Body weight was modestly impacted by DMF.
Thirty-two female SOD1-G93A mice were purchased from Jackson Laboratories (Line 2726). All mice were transgene positive. Sixteen mice were used per dosing group. Dosing began at day 50-55. All procedures were conducted in accordance with the NIH Guide for the Care and Use of Laboratory Animals and were approved by the Biogen Idec Institutional Animal Care and Use Committee (IACUC Protocol No. 0408-2011).
Mice were dosed once daily either with vehicle or DMF. Dosing volume was 10 ml/kg, introduced by oral gavage.
Disease onset and progression in the SOD1-G93A was monitored by three approaches. All approaches were done in a blinded fashion. Body weight was recorded on a daily basis. Mice were also inspected on a daily basis for disease onset, as defined by leg tremor or decreased hind limb flexion upon tail lift. Mice were also assessed on an accelerating rotarod test at weeks 12, 14, and 16. For this test, mice were first acclimated to a rod rotating at 2 rpm for 300 seconds once a day for two days. For the actual test, mice are placed on rod accelerating from 2 to 40 rpm over 90 seconds. Upon reaching full speed, the test continues for an additional 30 seconds. Mice were tested three times per day and the longest time recorded. Mice that were unable to remain on the rod for 20 seconds were excluded from further testing.
Mice were determined to have reached endpoint criteria for humane euthanasia when then when they failure to right from either side within 15 seconds.
For rotarod and body weight, values were compared by two-way ANOVA. Body weight was further evaluated by break point analysis. Break point analysis identifies the inflection point of a curve, by completing a series of linear regression fits. The intersection of the curve fits for the ascending and descending slopes with the minimal residual error is defined as the break point. For each mouse, the breakpoint was determined. The two groups were then compared by Student's T-test. Differences in onset and survival were tested for using the Mantel-Cox log rank test. A further test with the Cox proportional hazards test incorporating littermate status was completed.

[1] = system: malonate-induced striatal lesion in rats; experiment: Malonate-induced striatal lesion volume (cytochrome oxidase histochemistry), oral DMF; format: in vivo, Sprague-Dawley rats
Experimental: Two separate experiments were conducted and are reported here.
Rats were anesthetized under Bupivacaine (2 mg/kg), Brevital (50 mg/kg, i.p.) and isoflurane anesthesia, placed in a stereotaxic frame and prepared for intrastriatal injection. A single injection of malonate was injected at a single site in the left striatum corresponding to stereotaxic coordinates at AP: […] from bregma; Lateral: 2.8 mm from midline; DV: −5.5 mm from surface of the skull at bregma. Malonate (in saline) was injected at a dose of 2.0 μmols in 2.0 μl over 4 minutes using a syringe pump. The injection needle was left in place for an additional 1.0 min following the infusion and was withdrawn slowly to minimize reflux of the infusate up the needle tract. Rats were kept warm on a heating pad until waking from anesthesia (Green and Greenamyre, 1995).
Three (Experiment 1) or four (Experiment 2) days after the malonate injection and 30 min after the last dose, all animals were sacrificed by CO2, and their brains were quickly removed and stored in 20% sucrose in PBS for at least 1 hour, then transfer them to 30% sucrose in PBS overnight. On next day, all brains were embedded in OCT and stored in −80° C. The first experiment included three treatment groups: vehicle, 30 mg/kg and 100 mg/kg, and the second experiment included four treatment groups: vehicle, 50 mg/kg, 75 mg/kg and 100 mg/kg.
Incubation medium consisted of 200 mg cytochrome C and 200 mg of 3, 3′-Diaminobenzidine tetrahydrochloride (DAB) in 500 ml of 0.1 M phosphate buffer, pH 7.4. Slides were incubated for 90 minutes at 37° C. and wash twice with PBS (2-5 min.), then removed to 4% neutral, buffered, paraformaldehyde for 20 minutes. Sections were rinsed twice with PBS (2-5 min.), then twice with distilled water (2-5 min.), dehydrated, cleared in xylene, and coverslipped.
The lesion area on each section was quantified using Open-Lab Image Analysis System. Sections were taken throughout the entire striatum and a total of twenty 25 μm sections were analyzed for each rat. Area measurements were summed and multiplied by intersectional distance (200 μm) to determine the lesion volume for each subject.
Data for lesion volume was analyzed by one way analysis of variance (ANOVA) followed by a Tukey's test to assess differences between the treatment and vehicle groups.

[2] = Tail histopathology after 5 days of once daily DMF IV tail vein dosing; format: in vivo, Sprague-Dawley rats; conditions: 5 days of repeated once daily tail vein injections

COC(=O)/C=C/C(=O)OC [DMF, dimethyl fumarate]
Disease onset as assessed by limb splay (SOD1-G93A mice): did not significantly change onset | Survival (SOD1-G93A mice): did not prolong survival | Transition from weight gain to weight loss (breakpoint analysis) (SOD1-G93A mice; p<0.05): significantly delayed | Rotarod performance (SOD1-G93A mice; weeks 12, 14, 16): did not alter rotarod performance | Reduction of malonate induced lesion volume ([1]; Experiment 1, DMF 100 mg/kg oral daily, n=7 per group): 55% | Reduction of malonate-induced lesion volume ([1]; Experiment 2, DMF 75 mg/kg oral daily): 44% | Reduction of malonate-induced lesion volume ([1]; Experiment 2, DMF 100 mg/kg oral daily): 61% | Reduction of malonate-induced lesion volume ([1]; both experiments, DMF 100 mg/kg oral daily): at least 55% | Histopathology findings in the tail [2]: no treatment-related histopathology findings in the tail
